Literature values in patent publication US6632839B2, “Capsicum based disinfectant and sterilizant” (priority 1997, dated 2003).
Read-outs that look alike come from different tables or passages of the source.

Conditions: for Solubility in water: water / cold water

Solubility in alcohol, fats, oils: very soluble in fats, oils and alcohol
Solubility in alcohol, fats, oils (listed as capsaicin): soluble in alcohol
Solubility in water: sparingly soluble in water
Solubility in water (listed as capsaicin): insoluble in cold water
SMILES: COc1cc(CNC(=O)CCCC/C=C/C(C)C)ccc1O [Capsaicin, N-vanillyl-8-methyl-6-(E)-noneamide]
